Data reported in US20240390330A1, “ALPHA-2-ADRENERGIC RECEPTOR AGONISTS FOR REDUCING REDNESS AND INCREASING WHITENESS IN EYES AND OTHER OPHTHALMIC PURPOSES” (Allergan, Inc., priority 2020, published 2024).
Each block holds one molecule with its values, some of them ahead of it.

What was measured:
[1] = Procedure: Aliquots of the PBS only curve were quenched at time zero to be used as stability controls and calibration standards. Following centrifugation, samples were analyzed by LC-MS/MS bioanalysis. Back-calculated concentrations using the assay PBS curve were used for binding and stability calculations.
[2] = tested on: pupil diameter; test: In vivo rabbit miosis model; parameters: species or system Dutch Belted rabbits; details: for miotic efficacy compared with brimonidine: single topical dose, low-light conditions, FIG. 4 to FIG. 7
Procedure: Female Dutch Belted rabbits (Covance, Princeton, New Jersey) weighing between 2-4 kg were used for these studies. […] For topical dosing, eye drops (volume=35 μl) were instilled into the lower conjunctival sac of the test eye.
Pupil diameter was measured in both the treated and untreated eye with an Optistick to the nearest 0.5 mm. […]

[3] = tested on: eye redness; test: Treatment of red eye (patient cases); format: in vivo, human; details: person
Source text: A person complains about eye redness caused by seasonal allergies. A physician identifies the patient as having an OSH score of +2, and instructs them to administer to both of their eyes a composition comprising a compound of Formula I once or twice a day. Within the first day of administering the compound of Formula I, the patient reports decreased eye redness despite having on-going seasonal allergies, and their physician identifies the patient as having an OSH score of +0.5.
A person without any underlying health problems notices their eyes are red, making them appear tired at work. They administer to both of their eyes a composition comprising a compound of Formula I in order to increase the whiteness of their eyes for cosmetic reasons.
A person complains to their doctor that they suffer from red eyes due to minor eye irritations. The doctor prescribes a composition comprising a compound of Formula I and instructs them to administer the composition once or twice a day. The doctor also tells the person that many other marketed compositions for reducing eye redness are associated with side effects such as rebound hyperemia, dependency, and/or tachyphylaxis and that the person should report any such side effects.
Upon recommendation from a friend, they ask their doctor about possibly switching to a composition comprising the compound of Formula I since their friend told them that it works faster than brimonidine.

[4] = tested on: pupil size; details: brimonidine tartrate ophthalmic solution 0.2%, presbyopic patients, different lighting conditions (McDonald II et al.); cited from earlier work
[5] = tested on: ocular hyperemia; test: Reducing eye redness in rabbits (naive and povidone iodine induced hyperemia model); format: in vivo, New Zealand White rabbits
Procedure: In this study, Applicant evaluated the compound of Formula I on ocular hyperemia (i.e., eye redness).
The modified Hackett-McDonald Scoring scale (Table 1) was used to assess hyperemia, discomfort, conjunctival swelling and discharge. Ocular imaging was conducted via a Haag-Streit B slit lamp. Effects of these compounds were first evaluated in naïve animals following baseline measurements and then assessed in a povidone iodine induced hyperemia model.
Animals: This study was conducted in female New Zealand White rabbits (Covance) weighing approximately 2-4 kg upon arrival.
This effect can be utilized as a transient hyperemia model to evaluate for potential blanching of blood vessels and rapid reduction of hyperemia. The ocular surface was anesthetized with drops of 0.5% proparacaine. The eye was then irrigated with 5% povidone iodine ophthalmic solution and left on the ocular surface for at least 2 minutes to ensure the solution completely covers the eye. The periocular region was also wiped with povidone solution. Following 2 minutes post-irrigation, the eye was rinsed with sterile saline until the rinsed solution runs clear. Hyperemia at baseline and post ocular topical treatment was assessed via the modified Hackett-McDonald Scoring Scale shown in Table 1 above.
Ocular imaging: A Haag-Streit BP 900 slitlamp was used to evaluate the anterior segment of the eye (e.g., corneal integrity and cells in the aqueous humor). Pupils were dilated by applying drops of 1% cyclopentolate and 10% phenylephrine to the ocular surface. Ocular imaging was conducted in awake and/or anesthetized animals (7.5-10 mg/kg Ketamine/1-10 mg/kg Xylazine).

[6] = after 6 hours, 0.1% w:v, FIG. 7

melanin binding (in words) [1]: much more significant binding
SMILES: Brc1c(NC2=NCCN2)ccc2nccnc12 [Compound 4, brimonidine, reference compound]
animals with greater than 2.5 mm reduction in pupil size from baseline ([2]; a half hour after dosing, 0.1% w:v, FIG. 7): much less than half | animals with greater than 2.5 mm reduction in pupil size from baseline [2, 6]: virtually none | onset of eye redness reduction [3]: takes effect in less than a minute | average pupil size [4]: 3.4 mm

SMILES: CCc1c(N=C2NCCN2)ccc2[nH]cnc12 [Compound 2, reference compound]
miotic efficacy compared with brimonidine [2]: much less than brimonidine

melanin binding (in words) [1]: no significant melanin binding
SMILES: Cc1c(N=C2NCCN2)ccc2[nH]cnc12 [Compound 1]
hyperemia reduction on digital redness scale compared with LUMIFY ([5]; 0.03% composition, FIG. 3): performed better than LUMIFY® | time post treatment of significant reduction in hyperemia ([5]; 0.03% composition, FIG. 3): ≤ 1 min | efficacy on ocular hyperemia compared with LUMIFY ([5]; 0.03% composition, single eye drop (~35 μl), FIG. 1 and FIG. 2): significantly greater efficacy on ocular hyperemia than LUMIFY® | reduction in the Modified Hackett-McDonald Score compared with LUMIFY ([5]; score including hyperemia, discomfort, conjunctival swelling and discharge): greater reduction in the Modified Hackett-McDonal Score | responder analysis of rabbits with >2.5 mm pupil change ([2]; 0.1% w:v, n=6, scotopic condition (<10 lux), FIG. 7): more efficacious than brimonidine | magnitude of pupil size reduction compared with brimonidine ([2]; FIG. 7 and FIGS. 5 and 6): greater magnitude of pupil size reduction and therapeutic activity when compared to brimonidine | pupil constriction over 9 hours ([2]; FIG. 9): significant pupil constriction even at 9 hours after dosing | effect on pupil constriction compared with Compound 3 ([2]; FIG. 10): greater effect on pupil constriction when compared to Compound 3 | dose miotic response ([2]; Scotopic condition (<10 lux), FIG. 6): very potent dose miotic response | animals with greater than 2.5 mm reduction in pupil size from baseline [2, 6]: more than half | miotic effect compared with other alpha adrenergic receptor agonists including brimonidine ([2]; rabbit, in vivo): best miotic effect | miotic action (peak pupil constriction and duration of action) ([2]; room lighting conditions, FIG. 8): greater miotic action than brimonidine | animals with greater than 2.5 mm reduction in pupil size from baseline ([2]; two hours after dosing, 0.1% w:v, FIG. 7): virtually all animals | onset of eye redness reduction [3]: more effective in reducing eye redness in quite a bit less than a minute and faster than the brimonidine composition | whiteness of the eyes ([3]; cosmetic use, both eyes): noticeably whiter | eye redness ([3]; minor eye irritations, once or twice a day, a few weeks): no longer as red as they used to be | rebound hyperemia, dependency, tachyphylaxis ([3]; once or twice a day, a few weeks): has not observed any of the rebound hyperemia, dependency, or tachyphylaxis | OSH score ([3]; seasonal allergies, baseline +2, within the first day, scale of Table 2): +0.5

SMILES: Brc1c(N=C2NCCN2)ccc2[nH]cnc12 [Compound 3, reference compound]
miotic efficacy compared with brimonidine [2]: much less than brimonidine
